In one experiment the target is ACC1 (Homo sapiens, UniProt Q13085). The experiment in a line: In vitro ACC1 inhibition assay (ADP-Glo). The class given is biochemical. In outline: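 Enzyme (human ACC1 or ACC2) and compound, serially diluted 1:3 over 11 points from a 600 uM DMSO stock, were preincubated 15 min before substrate addition.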
For orientation: In ADP-Glo the light output rises with the ADP produced.

The format of experiment [1] is in vivo, Sprague Dawley rats. Conditions: 2 weeks. As for the experimental part:
The compounds of the present invention are readily adapted to clinical use as anti-obesity agents, insulin sensitizing agents, hyperinsulinemia-reversing agents, and hepatic steatosis-reversing agents. Such activity was determined by assessing the amount of test compound that reduces body weight and percentage body fat, reduces plasma insulin levels, blunts the rise and/or accelerates the reduction in plasma insulin and glucose levels in response to an oral glucose challenge, and reduces hepatic lipid content relative to a control vehicle without test compound in mammals. Sprague Dawley rats were fed either chow, a diet high in sucrose (for example AIN76A rodent diet; Research diets Inc. Cat #10001) or a diet high in fat (for example Research diets Inc. Cat #12451), for from 3-8 weeks prior to and during test compound administration.
For example, after a 3-8 week period of ad libitum feeding of either a chow, high-fat, or high-sucrose diet, animals that continued to receive the diet were treated for 1-8 weeks with test compound administered either by oral gavage in water or saline or water or saline containing 0.5% methylcelluose using a Q.D., B.I.D, or T.I.D. dosing regimen. At various times during study and at sacrifice (by CO2 asphyxiation), blood was collected either from the tail vein of an unanesthesized rat or from the vena cava of animals at sacrifice into heparin or EDTA containing tubes for centrifugal separation to prepare plasma. Plasma levels of parameters of lipid and carbohydrate metabolism known by those skilled in the art to be altered coincident with anti-obesity, insulin sensitizing, hyperinsulinemia-reversing, and hepatic steatosis-reversing actions, including but not limited to cholesterol and triglycerides, glucose, insulin, leptin, adiponectin, ketone bodies, free fatty acids, and glycerol, are measured using methods known to those skilled in the art.
The anti-obesity, insulin sensitizing, hyperinsulinemia-reversing, and hepatic steatosis-reversing potential of compounds of the present invention are exemplified through the actions of example compound I-181. […] Results of the reduction in total body weight measurements after treatment of high fat diet-fed DIO rats with compound I-181 are shown in FIG. 11. The degree of body weight reduction paralleled plasma drug levels measured at the end of the study. […] The plasma leptin levels for animals receiving the standard chow diet (lean controls) were also evaluated to determine the extent of parameter normalization produced by compound I-181. […] Results of the reduction in plasma insulin measurements after treatment of high fat diet-fed DIO rats with compound I-181 are shown in FIG. 12. […] Results of the reduction in hepatic triglyceride and cholesterol measurements after treatment of high fat diet-fed DIO rats with compound I-181 are shown in FIG. 13. […] Results of diet-induced obesity studies measuring the effect of compound I-181 on plasma cholesterol and plasma triglycerides are shown in Table 4 below. Data shown are mean values for n=14 animals per group±SEM.

Setting [2] is: high-fat diet rats, 3, 10, 30 mg/kg once daily oral gavage.

A value given as a limit tells only on which side of the number the result lay.

What is called IC50 is the point on the concentration scale where inhibition reaches its midpoint. The low end stands for greater potency in that assay, the high end for weaker potency in that assay. The compound `COc1ccccc1[C@H](Cn1c(=O)n(C(C)(C)C(=O)O)c(=O)c2c(C)c(-c3ncco3)sc21)OC1CCOCC1` [I-181, 2-[1-[2-(2-methoxyphenyl)-2-(oxan-4-yloxy)ethyl]-5-methyl-6-(1,3-oxazol-2-yl)-2,4-dioxo-1H,2H,3H,4H-thieno[2,3-d]pyrimidin-3-yl]-2-methylpropanoic acid] showed an IC50 at ACC1 of less than 100 nM. In experiment [1] (setting [2]), the plasma glucose levels entry is given as “no concomitant reduction in plasma glucose levels” and the plasma leptin levels entry is given as “reduced by all compound I-181 doses evaluated”. Also, the “total body weight relative to vehicle-treated control animals” value in experiment [1] (high-fat diet rats, 3, 10, 30 mg/kg once daily oral gavage, FIG. 11) is given as “dose-dependent reduction in total body weight”. Moreover, in experiment [1] (high-fat diet rats, 3, 10, 30 mg/kg once daily oral gavage, FIG. 12), the plasma insulin levels result is on record as “reduced to near lean control levels by all three compound I-181 doses”. Moreover, in experiment [1] (high-fat diet rats, 3, 10, 30 mg/kg once daily oral gavage, FIG. 13), the hepatic triglycerides entry is given as “reduced in a dose-dependent manner”. For the same compound, the “hepatic triglycerides at the highest dose” value in experiment [1] (high-fat diet rats, highest dose evaluated (30 mg/kg)) was “normalized to lean control levels by the highest dose evaluated”.

The values are drawn from patent US9453026B2, “ACC inhibitors and uses thereof” (Gilead Apollo, Inc., priority 2011, dated 2016).
